Assay results published in patent US9181243B2, “Solvate form M of trametinib dimethyl sulfoxide and methods of making and using thereof” (HANGZHOU PUSHAI PHARMACEUTICAL TECHNOLOGY CO., LTD., priority 2014, dated 2015).
Like-named read-outs stand apart in the source and are kept apart here.

Key:
[1] = volume distribution
Experimental: Typical particle size distribution (PSD) is measured using a laser diffraction particle size analyzer, namely Microtrac FLEX 53500. The most common approach for defining the distribution is to report the D10, D50, and D90 values based on a volume distribution. The D50, the median, has been defined above as the diameter where half of the population lies below this value. Similarly, 90 percent of the distribution lies below the D90, and 10 percent of the population lies below the D10.

[2] = Storage stability of crystalline form followed by XRPD; details: 44% RH, room temperature, 9 months
[3] = tested on: advanced melanoma with BRAF V600E/K mutations; details: versus traditional chemotherapy drugs; cited from earlier work
[4] = Isothermal sorption (hygroscopicity); details: between 20-80% RH (relative humidity)
Experimental: Isothermal sorption was performed by TA Instruments Q5000 TGA. The control software is Thermal Advantage and the analysis software is Universal Analysis. Usually 1 to 10 mg of the specimen was placed in the platinum pan. The weight changes of the sample from 20% to 80% to 20% relative humidity were recorded by the TA software and the isothermal sorption plot was obtained by the analysis software.

CC(=O)Nc1cccc(-n2c(=O)n(C3CC3)c(=O)c3c(Nc4ccc(I)cc4F)n(C)c(=O)c(C)c32)c1.C[S+](C)[O-] [Reference Example 1, Trametinib dimethyl sulfoxide solvate, reference compound] showed a D10 [1] of 3 μm, a D50 [1] of 8 μm and a D90 [1] of 36 μm. For the same molecule, the “crystalline form change on storage (XRPD pattern)” value (shortened to “crystalline form change on storage”) ([2]; listed as trametinib dimethyl sulfoxide solvate obtained by the conventional methods) was “its patterns changed” and the “crystalline form change on storage” value ([2]; listed as trametinib dimethyl sulfoxide solvates obtained by conventional methods) was “changed its XRD pattern”.
For CC(=O)Nc1cccc(-n2c(=O)n(C3CC3)c(=O)c3c(Nc4ccc(I)cc4F)n(C)c(=O)c(C)c32)c1 [trametinib, N-{3-[3-cyclopropyl-5-(2-fluoro-4-iodo-phenylamino)-3,4,6,7-tetrahydro-6,8-dimethyl-2,4,7-trioxo-pyrido[4,3-d]pyrimidin-1(2H)-yl]phenyl}acetamide], the therapeutic effect [3] is listed as “significantly better than traditional chemotherapy drugs”.
CC(=O)Nc1cccc(-n2c(=O)n(C3CC3)c(=O)c3c(Nc4ccc(I)cc4F)n(C)c(=O)c(C)c32)c1 [Form M] showed a D10 ([1]; listed as Example 8) of 18 μm, a D50 ([1]; listed as Example 8) of 40 μm and a D90 ([1]; listed as Example 8) of 85 μm. It also gave a D10 ([1]; listed as Example 9) of 9 μm, a D50 ([1]; listed as Example 9) of 24 μm and a D90 ([1]; listed as Example 9) of 72 μm. For the same molecule, the “weight change in isothermal sorption” value [4] was “about 1.07%” and the “crystalline form change on storage” value [2] was “no signs of form change”.
